Reference: US20260091031A1, “CGRP RECEPTOR ANTAGONISTS FOR TREATING CHEMOTHERAPY-INDUCED NAUSEA AND VOMITING (CINV)” (priority 2022, published 2026)

How the values were obtained:
[1] = test system: vomiting induced by cisplatin or cyclophosphamide in the shrew; assay: Vomiting events induced by cisplatin or cyclophosphamide; format: in vivo, shrew (Suncus Murinus); conditions: 3 mg/kg oral 6 hrs before cisplatin (6 mg/kg i.p.) or cyclophosphamide (40 mg/kg i.p.), monitored for 4 hrs
Protocol: Specifically, we have evaluated the effects of the oral administration of rimegepant, ubrogepant, atogepant and zavegepant (3 mg/kg) on vomiting events induced in the shrew by cisplatin (6 mg/kg i.p.) or cyclophosphamide (40 mg/kg i.p.). To allow complete gepant absorption and tissue distribution, cisplatin and cyclophosphamide have been administered 6 hrs after the gepants and animals monitored for 4 hrs.
FIG. 3. Effects of gepants on vomiting induced by cisplatin or cyclophosphamide in the shrew. Shrews (10 animals/group) have been orally administered with rimegepant, ubrogepant, atogepant and zavegepant (3 mg/kg) 6 hrs before the intraperitoneal injection of cisplatin (6 mg/kg) or cyclophosphamide (40 mg/kg) and the number of vomiting events evaluated for 4 hrs.

[2] = Accumulation of gepants in trigeminal ganglion and cerebral cortex after oral administration (LC/MS of tissue extracts); format: in vivo; conditions: rat, 3 mg/kg oral, 6 hrs after administration, transcardially perfused 10 min
Protocol: Animals have been transcardially perfused with cold saline for 10 min in order to remove blood contamination and the possible presence of gepants present in plasma. Upon perfusion, tissue specimens form the cerebral cortex (a region beyond the blood brain barrier) and from the trigeminal ganglion (a region before the blood brain barrier) have been collected and extracted with 10 volumes (weight/volume) of a solution of water/acetonitrile (50%/50%). Tissue extracts have been injected in a LC/MS apparatus to reveal the possible presence of the orally-administered gepants.
FIG. 1. Evaluation of the ability of gepants to accumulate within the trigeminal ganglion and cerebral cortex upon oral administration in the rat. […] Animals have been transcardially perfused for 10 min to remove contamination by gepants present in plasma.

[3] = test system: nausea induced by cisplatin or cyclophosphamide in the rat; assay: Gaping events as index of nausea induced by cisplatin or cyclophosphamide; format: in vivo; conditions: 3 mg/kg oral 6 hrs before cisplatin (6 mg/kg i.p.) or cyclophosphamide (40 mg/kg i.p.), monitored for 4 hrs
Protocol: It is known that the induction of nausea by a chemical can be evaluated in rats measuring repetitive mouth opening (the so called “gaping”) (Autonomic Neuroscience, 2006, 129, 36-41). We have therefore evaluated the effects of rimegepant, ubrogepant, atogepant and zavegepant (3 mg/kg) on gaping prompted in rats by the anticancer drugs cisplatin (6 mg/kg, i.p.) or cyclophosphamide (40 mg/kg, i.p.). These drugs have been injected 6 hrs after the oral administration of the gepants to allow complete tissue drug absorption and distribution. Gaping was monitored for 4 hrs.
FIG. 2. Effects of gepants on nausea induced by cisplatin or cyclophosphamide in the rat. Rats (10 animals/group) received rimegepant, ubrogepant, atogepant and zavegepant orally (3 mg/kg) 6 hrs before an intraperitoneal injection of cisplatin (6 mg/kg) or cyclophosphamide (40 mg/kg). The number of gaping events were evaluated for 4 hrs as an index of nausea.

Row | Compound | number of vomiting events compared to controls [1] | presence in brain cortex extracts [2] | presence in trigeminal ganglion extracts [2] | number of gaping events (index of nausea) compared to controls [3]
1 | Cc1cc(C[C@@H](NC(=O)N2CCC(c3cc4ccccc4[nH]c3=O)CC2)C(=O)N2CCN(C3CCN(C)CC3)CC2)cc2cn[nH]c12 [zavegepant] | reduced number of vomiting events | detectable | detectable | reduced number of gaping events
2 | C[C@@H]1[C@H](c2c(F)ccc(F)c2F)C[C@H](NC(=O)c2cnc3c(c2)C[C@@]2(C3)C(=O)Nc3ncccc32)C(=O)N1CC(F)(F)F [atogepant] | reduced number of vomiting events | detectable | detectable | reduced number of gaping events
3 | N[C@@H]1c2cccnc2[C@H](OC(=O)N2CCC(n3c(=O)[nH]c4ncccc43)CC2)CC[C@H]1c1cccc(F)c1F [rimegepant] | reduced number of vomiting events | detectable | detectable | reduced number of gaping events
4 | C[C@@H]1[C@H](c2ccccc2)C[C@H](NC(=O)c2cnc3c(c2)C[C@@]2(C3)C(=O)Nc3ncccc32)C(=O)N1CC(F)(F)F [ubrogepant] | reduced number of vomiting events | detectable | detectable | reduced number of gaping events
